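Method: 48-hour compound exposure of cells in 96-well plates, five concentrations, linear interpolation of endpoints. Definition used: TGI = concentration required for complete inhibition of growth.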
Tests used:
Assay in all cases: inhibition of tumour cell growth, NCI panel, 48 h
[1] = system: UACC-62 melanoma
[2] = system: CCRF-CEM leukemia
[3] = system: BT-549 breast
[4] = system: RXF 393 renal
[5] = system: SF-268 CNS
[6] = system: MOLT-4 leukemia
[7] = system: SR leukemia
[8] = system: M14 melanoma
[9] = system: ACHN renal
[10] = system: LOX IMVI melanoma
[11] = system: KM12 colon
[12] = system: NCI/ADR-RES ovarian
[13] = system: HOP-62 NSCLC
[14] = system: A498 renal
[15] = system: SK-MEL-5 melanoma
[16] = system: SK-MEL-28 melanoma
[17] = system: NCI-H522 lung
[18] = system: IGROV1 ovarian
[19] = system: SW-620 colon
[20] = system: SF-539 CNS
[21] = system: HCT-116 colon
[22] = system: MDA-N
[23] = system: U251 CNS
[24] = system: HOP-92 NSCLC
[25] = system: NCI-H23 lung
[26] = system: UO-31 renal
[27] = system: T-47D breast
[28] = system: A549 NSCLC
[29] = system: HT29 colon
[30] = system: HCT-15 colon
[31] = system: MDA-MB-435
[32] = system: UACC-257 melanoma
[33] = system: TK-10 renal
[34] = system: HS 578T breast
[35] = system: SK-OV-3 ovarian
[36] = system: NCI-H460 lung
[37] = system: MCF7 breast
[38] = system: RPMI-8226 leukemia
[39] = system: SK-MEL-2 melanoma
[40] = system: CAKI-1 renal
[41] = system: SNB-19 CNS
[42] = system: COLO 205 colon
[43] = system: SN12C renal
[44] = system: HL-60(TB) leukemia
[45] = system: MALME-3M melanoma
[46] = system: OVCAR-8 ovarian
[47] = system: K-562 leukemia
[48] = system: SNB-75 CNS
[49] = system: SF-295 CNS
[50] = system: OVCAR-3 ovarian
[51] = system: 786-0 renal
[52] = system: PC-3 prostate
[53] = system: MDA-MB-231 breast
[54] = system: DU-145 prostate
[55] = system: OVCAR-4 ovarian
[56] = system: EKVX NSCLC
[57] = system: OVCAR-5 ovarian
[58] = system: NCI-H226 lung

What does the source list for `NC1(C(=O)O)CCCC1C(=O)O` (stereo not given)?
TGI [1]: > 100 µM; TGI [2]: > 100 µM; TGI [3]: > 100 µM; TGI [4]: > 100 µM; TGI [5]: > 100 µM; TGI [6]: > 100 µM; TGI [7]: > 100 µM; TGI [8]: > 100 µM; TGI [9]: > 100 µM; TGI [10]: > 100 µM; TGI [11]: > 100 µM; TGI [12]: > 100 µM; TGI [13]: > 100 µM; TGI [14]: > 100 µM; TGI [15]: > 100 µM; TGI [16]: > 100 µM; TGI [17]: > 100 µM; TGI [18]: > 100 µM; TGI [19]: > 100 µM; TGI [20]: > 100 µM; TGI [21]: > 100 µM; TGI [22]: > 100 µM; TGI [23]: > 100 µM; TGI [24]: > 100 µM; TGI [25]: > 100 µM; TGI [26]: > 100 µM; TGI [27]: > 100 µM; TGI [28]: > 100 µM; TGI [29]: > 100 µM; TGI [30]: > 100 µM; TGI [31]: > 100 µM; TGI [32]: > 100 µM; TGI [33]: > 100 µM; TGI [34]: > 100 µM; TGI [35]: > 100 µM; TGI [36]: > 100 µM; TGI [37]: > 100 µM; TGI [38]: > 100 µM; TGI [39]: > 100 µM; TGI [40]: > 100 µM; TGI [41]: > 100 µM; TGI [42]: > 100 µM; TGI [43]: > 100 µM; TGI [44]: > 100 µM; TGI [45]: > 100 µM; TGI [46]: > 100 µM; TGI [47]: > 100 µM; TGI [48]: > 100 µM; TGI [49]: > 100 µM; TGI [50]: > 100 µM; TGI [51]: > 100 µM; TGI [52]: > 100 µM; TGI [53]: > 100 µM; TGI [54]: > 100 µM; TGI [55]: > 100 µM; TGI [56]: > 100 µM; TGI [57]: > 100 µM

Which results are given for `COc1cc(/C=N\O)cc(/C=N/O)c1O`?
TGI [1]: > 100 µM; TGI [2]: 25.1 µM; TGI [3]: > 100 µM; TGI [4]: 60.3 µM; TGI [5]: > 100 µM; TGI [6]: 77 µM; TGI [7]: 90.2 µM; TGI [8]: 54.7 µM; TGI [9]: 81.9 µM; TGI [10]: > 100 µM; TGI [11]: > 100 µM; TGI [12]: > 100 µM; TGI [13]: > 100 µM; TGI [14]: > 100 µM; TGI [15]: > 100 µM; TGI [16]: > 100 µM; TGI [17]: > 100 µM; TGI [18]: > 100 µM; TGI [19]: > 100 µM; TGI [20]: 66.3 µM; TGI [21]: > 100 µM; TGI [22]: > 100 µM; TGI [23]: > 100 µM; TGI [24]: 79.5 µM; TGI [25]: > 100 µM; TGI [26]: > 100 µM; TGI [27]: > 100 µM; TGI [28]: > 100 µM; TGI [29]: > 100 µM; TGI [30]: > 100 µM; TGI [31]: > 100 µM; TGI [32]: > 100 µM; TGI [58]: 63.8 µM; TGI [33]: > 100 µM; TGI [34]: 51.4 µM; TGI [35]: 90.9 µM; TGI [36]: > 100 µM; TGI [37]: > 100 µM; TGI [38]: 32.4 µM; TGI [39]: 62.7 µM; TGI [40]: > 100 µM; TGI [41]: > 100 µM; TGI [42]: 49.2 µM; TGI [43]: > 100 µM; TGI [44]: > 100 µM; TGI [45]: 97.6 µM; TGI [46]: > 100 µM; TGI [47]: > 100 µM; TGI [48]: > 100 µM; TGI [49]: 76.5 µM; TGI [50]: > 100 µM; TGI [52]: > 100 µM; TGI [53]: > 100 µM; TGI [54]: > 100 µM; TGI [55]: > 100 µM; TGI [56]: > 100 µM; TGI [57]: > 100 µM

`Cc1nc2cc([N+](=O)[O-])ccc2c(NCCCN(C)C)c1C` was tested. Which TGI [1] did it give?
The TGI was 33.9 µM.

What about the TGI [2] of the same molecule?
The TGI was over 100 µM.

And the TGI [3]?
The TGI was 26.1 µM.

And the TGI [4]?
Its TGI is 27.6 µM.

And the TGI [5]?
The TGI was over 100 µM.

And the TGI [6]?
The TGI was 29.4 µM.

And the TGI [7]?
Its TGI is over 100 µM.

And the TGI [8]?
The TGI was 26.7 µM.

What about the TGI [9] of the same molecule?
The TGI was 76.7 µM.

And the TGI [10]?
Its TGI is 36 µM.

And the TGI [11]?
The TGI was 26.6 µM.

What about the TGI [12] of the same molecule?
Its TGI is 39.9 µM.

What about the TGI [13] of the same molecule?
Its TGI is 28.2 µM.

And the TGI [14]?
The TGI was 30.5 µM.

And the TGI [15]?
The TGI was 21.7 µM.

What about the TGI [16] of the same molecule?
Its TGI is over 100 µM.

And the TGI [17]?
Its TGI is 10.7 µM.

What about the TGI [18] of the same molecule?
The TGI was 11.9 µM.

And the TGI [19]?
The TGI was 24.7 µM.

What about the TGI [20] of the same molecule?
The TGI was 30 µM.

And the TGI [21]?
The TGI was 22.4 µM.

And the TGI [22]?
Its TGI is 28.2 µM.

And the TGI [23]?
The TGI was 63.5 µM.

What about the TGI [24] of the same molecule?
Its TGI is 8.09 µM.

What about the TGI [25] of the same molecule?
The TGI was 15.4 µM.

What about the TGI [26] of the same molecule?
The TGI was 32.1 µM.

And the TGI [27]?
The TGI was 29 µM.

And the TGI [28]?
The TGI was 32.2 µM.

And the TGI [29]?
The TGI was 10.9 µM.

What about the TGI [30] of the same molecule?
The TGI was 31.3 µM.

And the TGI [31]?
The TGI was 31.1 µM.

What about the TGI [32] of the same molecule?
The TGI was 18.6 µM.

And the TGI [58]?
The TGI was 25.9 µM.

What about the TGI [33] of the same molecule?
Its TGI is 67 µM.

And the TGI [34]?
Its TGI is 75.7 µM.

What about the TGI [35] of the same molecule?
The TGI was over 100 µM.

What about the TGI [36] of the same molecule?
The TGI was 13.5 µM.

What about the TGI [37] of the same molecule?
Its TGI is 11 µM.

What about the TGI [38] of the same molecule?
The TGI was over 100 µM.

And the TGI [39]?
The TGI was 22.7 µM.

What about the TGI [40] of the same molecule?
Its TGI is 55.6 µM.

What about the TGI [42] of the same molecule?
The TGI was 8.55 µM.

And the TGI [43]?
The TGI was 34.5 µM.

What about the TGI [44] of the same molecule?
Its TGI is over 100 µM.

And the TGI [45]?
The TGI was 18.9 µM.

What about the TGI [46] of the same molecule?
Its TGI is 35.1 µM.

What about the TGI [47] of the same molecule?
Its TGI is over 100 µM.

What about the TGI [48] of the same molecule?
The TGI was over 100 µM.

And the TGI [49]?
Its TGI is 48.4 µM.

What about the TGI [50] of the same molecule?
The TGI was 33.7 µM.

What about the TGI [51] of the same molecule?
The TGI was 30.9 µM.

And the TGI [52]?
Its TGI is 24.3 µM.

What about the TGI [53] of the same molecule?
Its TGI is 14.2 µM.

What about the TGI [54] of the same molecule?
The TGI was 68.9 µM.

And the TGI [55]?
The TGI was 11.1 µM.

What about the TGI [57] of the same molecule?
Its TGI is 38.3 µM.
